For the experiment, the target named is T1, Stat1:Stat1 (Mus musculus, UniProt P42225).
T1 construct: nuclear extracts (prepared from epidermal growth factor (EGF)-stimulated fibroblasts); endogenous in cells; host or cells: NIH3T3 fibroblasts stimulated with EGF
T1 sequence (P42225 1-749): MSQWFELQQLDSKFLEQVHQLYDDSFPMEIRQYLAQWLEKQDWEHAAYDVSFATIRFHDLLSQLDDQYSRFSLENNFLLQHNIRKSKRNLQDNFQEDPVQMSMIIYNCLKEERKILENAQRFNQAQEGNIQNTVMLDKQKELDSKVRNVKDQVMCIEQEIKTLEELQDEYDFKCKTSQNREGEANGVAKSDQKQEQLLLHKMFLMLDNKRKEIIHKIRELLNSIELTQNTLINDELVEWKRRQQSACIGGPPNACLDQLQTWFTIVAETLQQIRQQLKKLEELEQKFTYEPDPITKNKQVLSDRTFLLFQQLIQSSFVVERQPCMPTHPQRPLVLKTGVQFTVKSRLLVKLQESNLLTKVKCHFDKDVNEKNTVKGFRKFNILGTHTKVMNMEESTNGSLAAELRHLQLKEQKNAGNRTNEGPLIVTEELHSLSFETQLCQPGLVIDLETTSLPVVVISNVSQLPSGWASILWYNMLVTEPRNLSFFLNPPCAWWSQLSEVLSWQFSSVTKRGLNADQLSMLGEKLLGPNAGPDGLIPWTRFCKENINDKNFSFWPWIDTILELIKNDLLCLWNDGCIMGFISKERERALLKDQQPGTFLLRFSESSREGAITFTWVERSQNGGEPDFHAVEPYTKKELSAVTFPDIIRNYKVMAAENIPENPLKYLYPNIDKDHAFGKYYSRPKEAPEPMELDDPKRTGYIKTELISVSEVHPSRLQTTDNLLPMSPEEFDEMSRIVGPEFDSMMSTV
As to the kind of experiment: EMSA of Stat1:Stat1 DNA-binding in nuclear extracts. In kind it is biochemical. On the procedure:
Nuclear extract preparation and gel shift assays. Nuclear extracts were prepared from cell lines and used for electrophoretic mobility shift assay (EMSA) as previously described (Garcia, R. et al. (1997); Yu, C. L. et al. (1995); Turkson, J. et al. (1998)). In some cases, cells were pre-treated with peptidomimetics for the indicated times (12-48 h) prior to harvesting for nuclear extract preparation. In other studies, nuclear extracts were pre-incubated with peptidomimetics for 30 min at room temperature prior to incubation with radiolabeled probe. The ^32P-radiolabeled oligonucleotide probes used are hSIE (high affinity sis-inducible element, m67 variant, 5′-[…]-3′) (SEQ ID NO. 3) that binds both Stat1 and Stat3 (Garcia, R. et al. (1997); Wagner B. J. et al. (1990)) and MGFe (mammary gland factor element from the bovine β-casein gene promoter, 5′-[…]-3′) (SEQ ID NO. 4) that binds Stat1 and Stat5 (Gouilleux, F. et al. (1995); Seidel, H. M. et al. (1995)).
Peptidomimetics of the invention can be prepared by replacing prolyl or alanyl residue at the peptide bond that is N-terminal to the phosphotyrosine (Y*) of a peptide such as PY*L or AY*L with an organic substituent such as an optionally substituted aryl or heteroaryl group. The activities of STATs were measured in nuclear extracts (prepared from epidermal growth factor (EGF)-stimulated fibroblasts) as DNA-bound protein complexes by electrophoretic mobility shift assay (EMSA). STAT-DNA complexes detected include Stat3:Stat3 homodimers (upper band), Stat1:Stat3 heterodimers (intermediate band) and Stat1:Stat1 homodimers (lower band) (FIG. 1A) when a ^32P-labeled hSIE oligonucleotide probe is used, or Stat5:Stat5 (upper band) and Stat1:Stat1 dimers (lower band) (FIG. 1B) when ^32P-labeled MGFe is used as a probe.
(In general: In EMSA bound probe runs differently from free probe, usually more slowly.)

One molecule from US7842671B1, “Peptidomimetic inhibitors of STAT activity and uses thereof” (University of South Florida, priority 2003, dated 2010) can be followed below.

One may read the IC50 as the midpoint of a concentration-inhibition curve. Read a high IC50 as lower potency.

`CC(C)CC(NC(=O)C(Cc1ccc(OP(=O)(O)O)cc1)NC(=O)c1ccc(C#N)cc1)C(=O)O` (stereo not shown) [ISS 610] came in with a half-maximal inhibitory concentration (IC50) of 310 µM.
